In US20050228007A1, “Isoquinoline derivatives and methods of use thereof” (priority 2004, published 2005):
Blank lines part the entries; values can stand above or below the molecule they belong to.

Key:
PARS [1] = molecular target: T1, PARS (Mus musculus, UniProt P11103); assay: PARS activation in peroxynitrite-treated cultured macrophages (whole-cell 3H-NAD+ assay); format: cell-based; details: cultured murine macrophages; for % PARS inhibition at 100 nM / inhibition at 0.1 µM: 100 nM; for % PARS inhibition at 300 nM / inhibition at 0.3 µM: 300 nM
T1 construct: endogenous in cells; host or cells: RAW mouse macrophages
Protocol: Raw mouse macrophages were cultured in DMEM medium with high glucose and supplemented with 10% fetal bovine serum. Cells were used at 80% confluence in 12-well plates. Cells were pretreated with various concentrations (100 nM -1 µM) of an Isoquinoline Derivative for 10 min. Peroxynitrite, a prototypical oxidant which induces DNA single strand breakage, was used to induce PARS activation. Peroxynitrite was diluted in phosphate buffered saline (PBS) (pH 11.0) and added to the cells in a bolus of 50 μl. Cells were then incubated for 20 min. […] After the 20 min incubation, the cells were spun, the medium was aspirated and the cells were resuspended in 0.5 ml assay buffer (56 mM HEPES pH 7.5, 28 mM KCl, 28 mM NaCl, 2 mM MgCl2, 0.01% w/v digitonin and 0.125 μM NAD^+ and 0.5 μCi/ml ^3H-NAD^+). Following an incubation in assay buffer, (10 min at 37° C.), PARS activity was measured as follows: 200 μl ice cold 50% w/v TCA was added and the samples were incubated for 4 hours at 4° C. Samples were then spun (10 min @ 10,000 g) and pellets washed twice with ice cold 5% w/v TCA and solubilized overnight in 250 μl 2% w/v SDS/0.1 N NaOH at 37° C. The contents of the tubes were added to 6.5 ml ScintiSafe Plus scintillation liquid (Fisher Scientific) and radioactivity was determined using a liquid scintillation counter (Wallac, Gaithersburg, Md.).

PARS [2] = molecular target: T1, PARS; assay: Cell protection assay, peroxynitrite-treated raw mouse macrophages; format: cell-based; details: peroxynitrite 750 μM

T1 sequence (P11103 whole entry): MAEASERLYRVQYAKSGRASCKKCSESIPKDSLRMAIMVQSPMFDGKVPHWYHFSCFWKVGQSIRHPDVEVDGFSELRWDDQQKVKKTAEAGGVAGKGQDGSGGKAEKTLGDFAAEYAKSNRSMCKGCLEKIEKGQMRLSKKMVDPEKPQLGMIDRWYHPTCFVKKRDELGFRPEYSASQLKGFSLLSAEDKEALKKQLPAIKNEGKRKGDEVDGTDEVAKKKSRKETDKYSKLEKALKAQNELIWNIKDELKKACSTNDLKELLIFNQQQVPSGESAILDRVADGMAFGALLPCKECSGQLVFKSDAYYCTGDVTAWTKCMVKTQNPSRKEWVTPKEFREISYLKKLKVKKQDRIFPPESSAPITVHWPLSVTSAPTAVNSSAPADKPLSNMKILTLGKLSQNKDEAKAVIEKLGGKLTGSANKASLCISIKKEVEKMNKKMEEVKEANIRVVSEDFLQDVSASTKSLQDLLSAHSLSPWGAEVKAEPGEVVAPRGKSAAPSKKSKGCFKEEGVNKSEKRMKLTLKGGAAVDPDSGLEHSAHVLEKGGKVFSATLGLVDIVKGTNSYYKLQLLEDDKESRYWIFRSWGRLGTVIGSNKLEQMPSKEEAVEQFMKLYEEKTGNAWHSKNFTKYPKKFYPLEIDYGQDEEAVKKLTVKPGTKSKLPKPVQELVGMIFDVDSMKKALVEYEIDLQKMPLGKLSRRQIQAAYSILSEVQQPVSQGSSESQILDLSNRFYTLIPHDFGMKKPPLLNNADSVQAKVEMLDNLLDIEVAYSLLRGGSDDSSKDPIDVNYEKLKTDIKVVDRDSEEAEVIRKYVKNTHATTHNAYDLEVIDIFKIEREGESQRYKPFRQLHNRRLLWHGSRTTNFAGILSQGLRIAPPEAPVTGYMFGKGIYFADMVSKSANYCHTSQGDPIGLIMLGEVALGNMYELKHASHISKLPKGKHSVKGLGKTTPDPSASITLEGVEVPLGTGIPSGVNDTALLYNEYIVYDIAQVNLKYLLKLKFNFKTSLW

% PARS inhibition at 100 nM (PARS [1]): 48%
% PARS inhibition at 300 nM (PARS [1]): 55%
SMILES: CN1CCN(CCCNS(=O)(=O)c2ccc3c(c2)Cc2c-3[nH]c(=O)c3ccccc23)CC1 [Compound 8o, 9-[N-[3-(4-methylpiperazino-1-yl]propyl)-aminosulphonyl]-5,6-dihydro-5-oxo-11H-indeno-[1,2c]isoquinoline]

% PARS inhibition at 300 nM (PARS [1]): 27%
SMILES: O=c1[nH]c2c(c3ccccc13)Cc1cc(S(=O)(=O)N3CCN(CCO)CC3)ccc1-2 [Compound 8c, 9-[N-4-(2-hydroxyethylpiperazino-1-yl)-sulphonyl]-5,6-dihydro-5-oxo-1H-indeno-[1,2-c]isoquinoline]

% PARS inhibition at 300 nM (PARS [1]): 68%
SMILES: O=c1[nH]c2c(c3ccccc13)Cc1cc(S(=O)(=O)N3CCCC3CO)ccc1-2 (stereo not shown) [Compound 8e, 9-[N-(2-hydroxyprolinyl)sulphonyl]-5,6-dihydro-5-oxo-11H-indeno[1,2-c]isoquinoline]

inhibition at 0.1 µM (PARS [1]): 14%
inhibition at 1 µM (PARS [1]): 75%
SMILES: NS(=O)(=O)c1ccc2c3[nH]c(=O)c4ccccc4c3n(S(N)(=O)=O)c2c1 [Compound 35a, 6H,11H-Indolo[3,2-c]Isoquinoline-5-one-9,11-disulfonamide]

% PARS inhibition at 300 nM (PARS [1]): 47%
SMILES: CN1CCN(S(=O)(=O)c2ccc3c(c2)Cc2c-3[nH]c(=O)c3ccccc23)CC1 [Compound 8a, 9-[N-(4-methylpiperazine-1-yl)sulphonyl]-5,6-dihydro-5-oxo-11H-indeno-[1,2-c]isoquinoline]

% PARS inhibition at 100 nM (PARS [1]): 77%
% PARS inhibition at 300 nM (PARS [1]): 82%
SMILES: O=c1[nH]c2c(c3ccccc13)Cc1cc(S(=O)(=O)n3ccnc3)ccc1-2 [Compound 8d, 9-[N-(imidazolo-1-yl)sulphonyl]-5,6-dihydro-5-oxo-11H-isoquinoline]

inhibition at 0.1 µM (PARS [1]): 53%
inhibition at 0.3 µM (PARS [1]): 57%
inhibition at 1 µM (PARS [1]): 58%
SMILES: O=c1[nH]c2c3ccc(O)cc3oc2c2ccccc12 [Compound 23b]

% PARS inhibition at 100 nM (PARS [1]): 56%
% PARS inhibition at 300 nM (PARS [1]): 76%
SMILES: O=c1[nH]c2c(c3ccccc13)Cc1cc(S(=O)(=O)NCCN3CCCCC3)ccc1-2 [Compound 8h, 9-[N-(2-[piperidino-1-yl]ethyl)-aminosulphonyl]-5,6-dihydro-5-oxo-11H-indeno[1,2-c]isoquinoline]

inhibition at 0.1 µM (PARS [1]): 0%
inhibition at 1 µM (PARS [1]): 21%
SMILES: O=c1[nH]c2c(c3ccccc13)C(N1CCOCC1)c1ccccc1-2 (racemic) [Compound 5e, (±) 11-morpholino-5,6-dihydro-5-oxo-11H-indeno[1,2-c]isoquinoline]

% PARS inhibition at 100 nM (PARS [1]): 0%
% PARS inhibition at 1 μM (PARS [1]): 24%
SMILES: CN1CCN(C2c3ccccc3-c3[nH]c(=O)c4ccccc4c32)CC1 (racemic) [Compound 5c, (±) 11-(N-methylpiperazin)-5,6-dihydro-5-oxo-11H-indeno[1,2-c]isoquinoline]

% PARS inhibition at 100 nM (PARS [1]): 20%
% PARS inhibition at 300 nM (PARS [1]): 28%
SMILES: CN(C)CCN(CCN(C)C)S(=O)(=O)c1ccc2c(c1)Cc1c-2[nH]c(=O)c2ccccc12 [Compound 8q, 9-[N,N di-(2-[N,N dimethylamino]ethyl)aminosulphonyl]-5,6-dihydro-5-oxo-11H-indeno-[1,2-c]isoquinoline]

inhibition at 0.1 µM (PARS [1]): 34%
inhibition at 0.3 µM (PARS [1]): 79%
inhibition at 1 µM (PARS [1]): 84%
SMILES: O=c1[nH]c2c3cc(O)ccc3oc2c2ccccc12 [Compound 23a, 8-Hydroxy-6H-11-oxa-6-aza-benzo[a]fluoren-5-one]

% PARS inhibition at 100 nM (PARS [1]): 20%
% PARS inhibition at 300 nM (PARS [1]): 28%
SMILES: O=c1[nH]c2c(c3ccccc13)Cc1cc(S(=O)(=O)N(CCN(CCO)CCO)CCN(CCO)CCO)ccc1-2 [Compound 8r, 9-[N,N-di(2[N,N-dihydroxyethylamino]ethyl)-aminosulphonyl]-5,6-dihydro-5-oxo-11H-indeno-[1,2c]isoquinoline]

% PARS inhibition at 100 nM (PARS [1]): 10%
% PARS inhibition at 1 μM (PARS [1]): 55%
SMILES: CN(C)C1c2ccccc2-c2[nH]c(=O)c3ccccc3c21 (racemic) [Compound 5a, (±) 11-N,N-dimethylamino-5,6-dihydro-5-oxo-11H-indeno[1,2-c]isoquinoline]

% PARS inhibition at 100 nM (PARS [1]): 51%
% PARS inhibition at 1 μM (PARS [1]): 81%
SMILES: COc1ccc2oc3c4ccccc4c(=O)[nH]c3c2c1 [Compound 22a]

inhibition at 0.1 µM (PARS [1]): 0%
inhibition at 1 µM (PARS [1]): 33%
SMILES: CCN(CC)C1c2ccccc2-c2[nH]c(=O)c3ccccc3c21 (racemic) [Compound 5b, (±) 11diethylamino-5,6-dihydro-5-oxo-11H-indeno[1,2-c]isoquinoline]

% PARS inhibition at 300 nM (PARS [1]): 50%
SMILES: O=c1[nH]c2c(c3ccccc13)Cc1cc(S(=O)(=O)NCCCN3CCCC3)ccc1-2 [Compound 8m, 9-[N-(3-[tetrahydropyrrolodino-1-yl]propyl)aminosulphonyl]-5,6-dihydro-5-oxo-11H-indeno-[1,2-c]isoquinoline]

% PARS inhibition at 100 nM (PARS [1]): 0%
% PARS inhibition at 1 μM (PARS [1]): 48%
SMILES: O=c1[nH]c2c(c3ccccc13)C(N1CCCCC1)c1ccccc1-2 (stereo not shown) [Compound 5d, 11-(piperidin)-5,6-dihydro-5-oxo-11H-indeno[1,2-c]isoquinoline]

inhibition at 0.1 µM (PARS [1]): 34%
inhibition at 0.3 µM (PARS [1]): 55%
SMILES: CN(C)CCNS(=O)(=O)c1ccc2c(c1)Cc1c-2[nH]c(=O)c2ccccc12 [Compound 8g, 9-[N-(2-[N,N-dimethylamino]ethyl)aminosulphonyl]-5,6-dihydro-5-oxo-11H-indeno[1,2-c]isoquinoline]

Second part, the molecule before the results:

SMILES: Nc1ccc2c(c1)Cc1c-2[nH]c(=O)c2ccccc12 [Compound 102, 5,6-Dihydro-5-oxo-9-amino-indeno[1,2-c]isoquinoline]
EC50 (PARS [2]): 95 nM

SMILES: O=S(=O)(O)c1ccc2c(c1)Cc1c-2nc(O)c2ccccc12 [Compound 110]
EC50 (PARS [2]): 625 nM

SMILES: O=c1[nH]c2c(c3ccccc13)Cc1cc(S(=O)(=O)Cl)ccc1-2 [Compound 7, 9-chlorosulfonyl-5,6-dihydro-5-oxo-11H-indeno[1,2-c]isoquinoline]
inhibition at 0.1 µM (PARS [1]): 0%
inhibition at 1 µM (PARS [1]): 50%

SMILES: CCCNC(=O)Nc1ccc2c(c1)Cc1c-2[nH]c(=O)c2ccccc12 [Compound 105]
EC50 (PARS [2]): 80 nM

SMILES: CC1(O)c2ccccc2-c2[nH]c(=O)c3ccccc3c21 (racemic) [Compound 3b, (±) 11-hydroxy-11-methyl-5,6-dihydro-5-oxo-11H-indeno[1,2-c]isoquinoline]
inhibition at 0.3 µM (PARS [1]): 0%
inhibition at 1 µM (PARS [1]): 25%

SMILES: O=c1[nH]c2c(c3ccccc13)C(Br)c1ccccc1-2 (racemic) [Compound 4b, (±) 11-bromo-5,6-dihydro-5-oxo-11H-indeno[1,2-c]isoquinoline]
inhibition at 0.1 µM (PARS [1]): 51%
inhibition at 1 µM (PARS [1]): 88%

SMILES: O=c1[nH]c2c(c3ccccc13)C(O)c1ccccc1-2 (racemic) [Compound 3a, (±) 11-hydroxy-5,6-dihydro-5-oxo-11H-indeno[1,2-c]isoquinoline]
inhibition at 0.1 µM (PARS [1]): 8%
inhibition at 1 µM (PARS [1]): 67%

SMILES: O=S(=O)(NCCCN1CCOCC1)c1cc2c(cc1F)-c1nc(O)c3ccccc3c1C2 [Compound 107]
EC50 (PARS [2]): 10 nM

SMILES: O=c1[nH]c2c(c3ccccc13)Cc1cc(F)ccc1-2 [Compound 100]
EC50 (PARS [2]): 180 nM

SMILES: Oc1nc2c(c3ccccc13)Cc1ccc(F)cc1-2 [Compound 99]
EC50 (PARS [2]): 225 nM

SMILES: O=c1[nH]c2c3ccccc3[nH]c2c2ccccc12 [Compound 31, 6H,11H-Indolo[3,2-c]Isoquinoline-5-one]
inhibition at 0.1 µM (PARS [1]): 18%

SMILES: O=C1c2ccccc2-c2[nH]c(=O)c3ccccc3c21 [Compound 2, 5,6-dihydro-5,11-diketo-11H-indeno[1,2-c]isoquinoline]
inhibition at 0.1 µM (PARS [1]): 16%
inhibition at 1 µM (PARS [1]): 60%

SMILES: O=C(CO)Nc1ccc2c(c1)Cc1c-2[nH]c(=O)c2ccccc12 [Compound 104]
EC50 (PARS [2]): 65 nM

SMILES: O=c1[nH]c2c(c3ccccc13)Cc1ccccc1-2 [Compound 6, 5,6-dihydro-5-oxo-11H-indeno[1,2-c]isoquinoline]
inhibition at 0.1 µM (PARS [1]): 30%
inhibition at 1 µM (PARS [1]): 65%

SMILES: COc1cccc(C2(O)c3ccccc3-c3[nH]c(=O)c4ccccc4c32)c1 (racemic) [Compound 3c, (±) 11-hydroxy-11-(m-methoxyphenyl)-5,6-dihydro-5-oxo-11H-indeno[1,2-c]isoquinoline]
inhibition at 0.3 µM (PARS [1]): 9%
inhibition at 1 µM (PARS [1]): 21%
